According to ChEMBL document CHEMBL4480377, “Synthesis and biological evaluation of zinc chelating compounds as metallo-β-lactamase inhibitors” (Medchemcomm, 2019):

Tests used:
[1] = target: Beta-lactamase VIM-2 (Pseudomonas aeruginosa) (UniProt Q9K2N0); experiment: Inhibition of beta-lactamase VIM-2 in Pseudomonas aeruginosa assessed as potentiation of meropenem-induced antibacterial activity by measuring meropenem MIC at 125 uM after 20 hrs by broth microdilution assay (meropenem alone = 32 to 64 mg/L)
[2] = target: Metallo-beta-lactamase type 2 (Klebsiella pneumoniae) (UniProt C7C422); experiment: Inhibition of NDM1 in Pseudomonas aeruginosa assessed as potentiation of meropenem-induced antibacterial activity by measuring meropenem MIC at 125 uM after 20 hrs by broth microdilution assay (meropenem alone = 32 to 64 mg/L)
Sequence of Metallo-beta-lactamase type 2 (Klebsiella pneumoniae) (C7C422 whole entry): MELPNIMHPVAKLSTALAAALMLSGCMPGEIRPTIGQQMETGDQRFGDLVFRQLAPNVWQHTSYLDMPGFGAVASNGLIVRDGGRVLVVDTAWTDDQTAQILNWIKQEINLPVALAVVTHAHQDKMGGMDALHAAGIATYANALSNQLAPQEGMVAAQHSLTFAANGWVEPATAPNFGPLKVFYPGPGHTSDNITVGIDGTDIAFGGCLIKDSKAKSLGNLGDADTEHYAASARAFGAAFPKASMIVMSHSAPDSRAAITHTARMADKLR

[3] = target: Beta-lactamase VIM-2 (Pseudomonas aeruginosa) (UniProt Q9K2N0); experiment: Inhibition of beta-lactamase VIM-2 in Pseudomonas aeruginosa assessed as potentiation of meropenem-induced antibacterial activity by measuring meropenem MIC at 31 uM after 20 hrs by broth microdilution assay (meropenem alone = 32 to 64 mg/L)
[4] = target: Beta-lactamase VIM-2 (Pseudomonas aeruginosa) (UniProt Q9K2N0); experiment: Inhibition of beta-lactamase VIM-2 in Pseudomonas aeruginosa assessed as potentiation of meropenem-induced antibacterial activity by measuring meropenem MIC at 16 uM after 20 hrs by broth microdilution assay (meropenem alone = 32 to 64 mg/L)
[5] = target: Metallo-beta-lactamase type 2 (Klebsiella pneumoniae) (UniProt C7C422); experiment: Inhibition of NDM1 in Pseudomonas aeruginosa assessed as potentiation of meropenem-induced antibacterial activity by measuring meropenem MIC at 31 uM after 20 hrs by broth microdilution assay (meropenem alone = 32 to 64 mg/L)
[6] = target: Metallo-beta-lactamase type 2 (Klebsiella pneumoniae) (UniProt C7C422); experiment: Inhibition of NDM1 in Pseudomonas aeruginosa assessed as potentiation of meropenem-induced antibacterial activity by measuring meropenem MIC at 16 uM after 20 hrs by broth microdilution assay (meropenem alone = 32 to 64 mg/L)
MDA-MB-231 = experiment: Cytotoxicity against human MDA-MB-231 cells after 72 hrs by MTT assay; assay type: cell-based; conditions: MDA-MB-231, 72 h
[7] = Cytotoxicity against human MiaPaCa cells after 72 hrs by MTT assay; assay type: cell-based; conditions: MIA PaCa-2, 72 h
COLO357 = experiment: Cytotoxicity against human Colo-357 cells after 72 hrs by MTT assay; assay type: cell-based; conditions: COLO357, 72 h
[8] = Binding affinity to zinc assessed as dissociation constant for compound-metal complex
[9] = target: Beta-lactamase VIM-2 (Pseudomonas aeruginosa) (UniProt Q9K2N0); experiment: Inhibition of beta-lactamase VIM-2 in Pseudomonas aeruginosa assessed as potentiation of meropenem-induced antibacterial activity by measuring meropenem MIC at 50 uM after 20 hrs by broth microdilution assay (meropenem alone = 32 to 64 mg/L)
[10] = target: Metallo-beta-lactamase type 2 (Klebsiella pneumoniae) (UniProt C7C422); experiment: Inhibition of NDM1 in Pseudomonas aeruginosa assessed as potentiation of meropenem-induced antibacterial activity by measuring meropenem MIC at 50 uM after 20 hrs by broth microdilution assay (meropenem alone = 32 to 64 mg/L)
HepG2 = experiment: Cytotoxicity against human HepG2 cells after 72 hrs by MTT assay; assay type: cell-based; conditions: HepG2, 72 h

CC(=O)N[C@@H](CCCCNC(=O)Cn1cc(CN(Cc2ccccn2)Cc2ccccn2)nn1)C(=O)NCB(O)O
MIC [1]: 2 µg/mL | MIC [2]: 0.5 µg/mL | MIC [3]: 32 µg/mL | MIC [4]: 32 µg/mL | MIC [5]: 8 µg/mL | MIC [6]: 16 µg/mL | IC50 (MDA-MB-231): 128 µM | IC50 [7]: 119 µM | IC50 (COLO357): 82 µM | pKd [8]: 8.9

COC(=O)[C@H](C)NC(=O)[C@H](C)NC(=O)Cn1cc(CN(Cc2ccccn2)Cc2ccccn2)nn1
MIC [1]: 8 µg/mL | MIC [2]: 2 µg/mL | MIC [3]: 16 µg/mL | MIC [4]: 32 µg/mL | MIC [5]: 8 µg/mL | MIC [6]: 16 µg/mL | IC50 (MDA-MB-231): 157 µM | IC50 [7]: 105 µM | IC50 (COLO357): 96 µM | pKd [8]: 8.9

Cl.NCC(=O)NCC(=O)NCCc1ccc(NC(=O)CN(CCN(Cc2ccccn2)Cc2ccccn2)Cc2ccccn2)cc1
IC50 (MDA-MB-231): 15 µM | IC50 [7]: 21 µM | IC50 (COLO357): 24 µM | pKd [8]: 12.3

COC(=O)[C@@H](CCCCn1cc(CN(Cc2ccccn2)Cc2ccccn2)nn1)NC(=O)[C@@H](C)NC(C)=O
MIC [1]: 4 µg/mL | MIC [2]: 1 µg/mL | IC50 (MDA-MB-231): 131 µM | IC50 [7]: 128 µM | IC50 (COLO357): 101 µM | pKd [8]: 8.9

NCC(=O)NCC(=O)NCCc1ccc(-n2cc(CN(Cc3ccccn3)Cc3ccccn3)nn2)cc1
MIC [9]: 8 µg/mL | MIC [10]: 4 µg/mL

COC(=O)[C@@H](C)NC(=O)[C@@H](C)NC(=O)CN(Cc1ccccn1)Cc1ccccn1
MIC [1]: 16 µg/mL | MIC [2]: 8 to 16 µg/mL | IC50 (MDA-MB-231): 184 µM | IC50 [7]: 98 µM | IC50 (COLO357): 90 µM | pKd [8]: 7.6

COC(=O)[C@@H](C)NC(=O)[C@@H](C)NC(=O)Cn1cc(CN(Cc2ccccn2)Cc2ccccn2)nn1
MIC [1]: 2 µg/mL | MIC [2]: < 0.5 µg/mL | MIC [3]: 64 µg/mL | MIC [4]: 32 µg/mL | MIC [5]: 16 µg/mL | MIC [6]: 32 µg/mL | IC50 (MDA-MB-231): 152 µM | IC50 [7]: 116 µM | IC50 (COLO357): 133 µM | pKd [8]: 8.9

COC(=O)[C@@H](C)NC(=O)[C@@H](C)NC(=O)Cc1ccc(-n2cc(CN(Cc3ccccn3)Cc3ccccn3)nn2)cc1
MIC [9]: 8 µg/mL | MIC [10]: 4 µg/mL | IC50 (MDA-MB-231): 125 µM | IC50 [7]: 119 µM | IC50 (COLO357): 105 µM | pKd [8]: 8.9

COC(=O)CNC(=O)CNC(=O)Cn1cc(CN(Cc2ccccn2)Cc2ccccn2)nn1
MIC [1]: 4 µg/mL | MIC [2]: 2 µg/mL | IC50 (MDA-MB-231): 168 µM | IC50 [7]: 176 µM | IC50 (COLO357): 137 µM | pKd [8]: 8.9

C[C@H](N)C(=O)N[C@@H](C)C(=O)NCCc1ccc(NC(=O)CN(CCN(Cc2ccccn2)Cc2ccccn2)Cc2ccccn2)cc1.Cl
MIC [1]: 2 µg/mL | MIC [2]: 0.125 µg/mL | MIC [3]: 4 µg/mL | MIC [4]: 32 µg/mL | MIC [5]: 0.125 µg/mL | MIC [6]: 16 µg/mL | IC50 (MDA-MB-231): 5.1 µM | IC50 [7]: 5.5 µM | IC50 (COLO357): 6.8 µM | pKd [8]: 12.3

COC(=O)[C@@H](C)NC(=O)[C@@H](C)NC(=O)CCC(=O)NCCc1ccc(NC(=O)CN(Cc2ccccn2)Cc2ccccn2)cc1
MIC [1]: 32 µg/mL | MIC [2]: 8 to 16 µg/mL | IC50 (MDA-MB-231): 141 µM | IC50 [7]: 45 µM | IC50 (COLO357): 152 µM | pKd [8]: 7.6

COC(=O)CNC(=O)CNC(=O)Cc1ccc(-n2cc(CN(Cc3ccccn3)Cc3ccccn3)nn2)cc1
MIC [9]: 8 µg/mL | MIC [10]: 4 µg/mL

C[C@@H](N)C(=O)N[C@H](C)C(=O)NCCc1ccc(-n2cc(CN(Cc3ccccn3)Cc3ccccn3)nn2)cc1
MIC [9]: 4 µg/mL | MIC [10]: 4 µg/mL

COC(=O)[C@@H](C)NC(=O)[C@H](CCCCNC(C)=O)NC(=O)Cn1cc(CN(Cc2ccccn2)Cc2ccccn2)nn1
MIC [9]: 32 µg/mL | MIC [10]: 8 µg/mL

OC1O[C@H](Cn2cc(CN(CCN(Cc3ccccn3)Cc3ccccn3)Cc3ccccn3)nn2)[C@H](O)[C@H](O)[C@H]1O (some centres undefined)
MIC [3]: 2 µg/mL | MIC [4]: 32 µg/mL | MIC [5]: 0.125 µg/mL | MIC [6]: 8 µg/mL | IC50 (HepG2): 1.7 µM

COC(=O)[C@@H](C)NC(=O)[C@@H](C)NC(=O)CN(C)CCN(Cc1ccccn1)Cc1ccccn1
MIC [9]: 1 µg/mL | MIC [10]: 0.125 µg/mL | MIC [3]: 1 to 2 µg/mL | MIC [4]: 32 µg/mL | MIC [5]: 0.125 µg/mL | MIC [6]: 16 µg/mL | IC50 (MDA-MB-231): 4.5 µM | IC50 [7]: 5.1 µM | IC50 (COLO357): 4.3 µM | IC50 (HepG2): 6.83 µM | pKd [8]: 11.8

COC(=O)[C@@H](C)NC(=O)[C@H](CCCCNC(=O)Cn1cc(CN(Cc2ccccn2)Cc2ccccn2)nn1)NC(C)=O
MIC [9]: 16 µg/mL | MIC [10]: 8 µg/mL

COC(=O)CNC(=O)[C@H](CCCCNC(C)=O)NC(=O)Cn1cc(CN(Cc2ccccn2)Cc2ccccn2)nn1
MIC [9]: 32 µg/mL | MIC [10]: 8 µg/mL

CC(=O)NCCCC[C@H](NC(=O)Cn1cc(CN(Cc2ccccn2)Cc2ccccn2)nn1)C(=O)NCB(O)O
MIC [1]: 2 µg/mL | MIC [2]: 0.5 µg/mL | MIC [3]: 16 µg/mL | MIC [4]: 32 µg/mL | MIC [5]: 8 µg/mL | MIC [6]: 16 µg/mL | IC50 (MDA-MB-231): 101 µM | IC50 [7]: 66 µM | IC50 (COLO357): 112 µM | pKd [8]: 8.9

COC(=O)CNC(=O)CNC(=O)Cc1ccc(NC(=O)CN(CCN(Cc2ccccn2)Cc2ccccn2)Cc2ccccn2)cc1
MIC [1]: 1 µg/mL | MIC [2]: 0.125 µg/mL | MIC [3]: 2 µg/mL | MIC [4]: 32 µg/mL | MIC [5]: 2 µg/mL | MIC [6]: 16 µg/mL | IC50 (MDA-MB-231): 7.8 µM | IC50 [7]: 12 µM | IC50 (COLO357): 12 µM | pKd [8]: 12.3

c1ccc(CNCCN(Cc2ccccn2)Cc2ccccn2)nc1
MIC [1]: 0.5 µg/mL | MIC [2]: < 0.25 µg/mL | MIC [3]: 1 µg/mL | MIC [4]: 32 µg/mL | MIC [5]: 0.125 µg/mL | MIC [6]: 8 µg/mL

COC(=O)CNC(=O)[C@H](CCCCNC(=O)Cn1cc(CN(Cc2ccccn2)Cc2ccccn2)nn1)NC(C)=O
MIC [9]: 16 µg/mL | MIC [10]: 4 µg/mL

COC(=O)[C@H](C)NC(=O)[C@H](C)NC(=O)Cc1ccc(NC(=O)CN(CCN(Cc2ccccn2)Cc2ccccn2)Cc2ccccn2)cc1
MIC [1]: 1 µg/mL | MIC [2]: 0.125 µg/mL | MIC [3]: 1 µg/mL | MIC [4]: 32 µg/mL | MIC [5]: 0.125 µg/mL | MIC [6]: 8 µg/mL

CN(CCN(Cc1ccccn1)Cc1ccccn1)CC(=O)N(C)C[C@H](O)[C@@H](O)[C@H](O)[C@H](O)CO
MIC [3]: 1 µg/mL | MIC [4]: 32 µg/mL | MIC [5]: 0.25 µg/mL | MIC [6]: 32 µg/mL | IC50 (HepG2): 118 µM

C[C@@H](N)C(=O)N[C@H](C)C(=O)NCCc1ccc(NC(=O)CN(Cc2ccccn2)Cc2ccccn2)cc1.Cl
MIC [1]: 16 µg/mL | MIC [2]: 8 µg/mL | IC50 (MDA-MB-231): 127 µM | IC50 [7]: 118 µM | IC50 (COLO357): 21 µM | pKd [8]: 7.6

C[C@@H](N)C(=O)N[C@H](C)C(=O)NCCc1ccc(NC(=O)CN(CCN(Cc2ccccn2)Cc2ccccn2)Cc2ccccn2)cc1.Cl
MIC [1]: 2 µg/mL | MIC [2]: 0.125 µg/mL | MIC [3]: 2 µg/mL | MIC [4]: 32 µg/mL | MIC [5]: 0.125 µg/mL | MIC [6]: 8 µg/mL | IC50 (MDA-MB-231): 4.9 µM | IC50 [7]: 4.8 µM | IC50 (COLO357): 6.8 µM | IC50 (HepG2): 13.6 µM | pKd [8]: 12.3

COC(=O)[C@@H](CCCCNC(=O)Cn1cc(CN(Cc2ccccn2)Cc2ccccn2)nn1)NC(=O)[C@@H](C)N
IC50 (MDA-MB-231): 127 µM | IC50 [7]: 106 µM | IC50 (COLO357): 114 µM | pKd [8]: 8.9

COC(=O)[C@@H](C)NC(=O)[C@@H](C)NC(=O)Cc1ccc(NC(=O)CN(CCN(Cc2ccccn2)Cc2ccccn2)Cc2ccccn2)cc1
MIC [1]: 1 µg/mL | MIC [2]: 0.125 µg/mL | MIC [3]: 4 µg/mL | MIC [4]: 32 µg/mL | MIC [5]: 0.125 µg/mL | MIC [6]: 16 µg/mL | IC50 (MDA-MB-231): 4.1 µM | IC50 [7]: 5.9 µM | IC50 (COLO357): 5.4 µM | pKd [8]: 12.3

CCOC(=O)Cc1ccc(-n2cc(CN(Cc3ccccn3)Cc3ccccn3)nn2)cc1
MIC [9]: 16 µg/mL | MIC [10]: 4 µg/mL
